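Assay format: 96-well plates, 48-hour exposure. TGI marks complete inhibition of growth.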

Among the test systems are HOP-62 NSCLC; SK-MEL-28 melanoma; KM12 colon; T-47D breast; NCI-H460 lung; TK-10 renal; UACC-257 melanoma; MALME-3M melanoma; MCF7 breast; CCRF-CEM leukemia; SK-MEL-5 melanoma; M14 melanoma; UO-31 renal; UACC-62 melanoma; HS 578T breast; HCC-2998 colon.
What all share (assay): NCI tumour cell line growth inhibition, 48 h

For the compound `COC(=O)CCn1cnc2c(SC)ncnc21`, the TGI with HOP-62 NSCLC, in the test on SK-MEL-28 melanoma, in the test with KM12 colon, in the test with T-47D breast, in the test on NCI-H460 lung and in the test with TK-10 renal was above 100 µM in each case. Also, the TGI in the test with UACC-257 melanoma, in the test with MALME-3M melanoma, with MCF7 breast, in the test on CCRF-CEM leukemia, with SK-MEL-5 melanoma and in the test on M14 melanoma was above 100 µM throughout. Also, the TGI in the test with UO-31 renal, in the test with UACC-62 melanoma and in the test on HS 578T breast was above 100 µM each time.
Consider `CN(C)c1nc(NN)c2c(-c3ccccc3)c(-c3ccccc3)oc2n1`, for which the TGI with SK-MEL-28 melanoma, in the test on KM12 colon, in the test with T-47D breast, in the test on TK-10 renal, in the test with UACC-257 melanoma and in the test with MCF7 breast was above 100 µM throughout. In addition, the TGI with CCRF-CEM leukemia, with M14 melanoma, in the test on UO-31 renal, in the test on UACC-62 melanoma, in the test on HCC-2998 colon and in the test with HS 578T breast was above 100 µM throughout.
As for `O=c1ccn2n1CCCCC2`, the TGI with HOP-62 NSCLC, in the test on SK-MEL-28 melanoma, in the test on KM12 colon, in the test on T-47D breast, with NCI-H460 lung and in the test with TK-10 renal was above 100 µM throughout. Moreover, the TGI with UACC-257 melanoma, in the test on MALME-3M melanoma, in the test with CCRF-CEM leukemia, in the test with SK-MEL-5 melanoma, with M14 melanoma and in the test with UO-31 renal was above 100 µM throughout. The TGI in the test on UACC-62 melanoma, in the test on HCC-2998 colon and in the test with HS 578T breast was above 100 µM each time.
For `CCOC(=O)NC(NC(C)CC)(C(F)(F)F)C(F)(F)F` (configuration not stated), the TGI in the test with HOP-62 NSCLC, in the test on SK-MEL-28 melanoma, with KM12 colon, with T-47D breast, in the test with NCI-H460 lung and in the test with TK-10 renal was above 100 µM throughout. For the same compound, the TGI in the test on UACC-257 melanoma, in the test with MALME-3M melanoma, with MCF7 breast, in the test with CCRF-CEM leukemia, with SK-MEL-5 melanoma and with M14 melanoma was above 100 µM each time. Also, the TGI in the test with UO-31 renal, in the test on UACC-62 melanoma and in the test on HS 578T breast was above 100 µM in each case.
For `Cc1c2c(n(Cc3ccccn3)c1C)NN=C(C#N)S2(=O)=O`, the TGI with HOP-62 NSCLC, with SK-MEL-28 melanoma, in the test on KM12 colon, with T-47D breast, in the test on NCI-H460 lung and in the test on TK-10 renal was above 100 µM throughout. In addition, the TGI in the test with UACC-257 melanoma, with MCF7 breast, in the test with SK-MEL-5 melanoma, with M14 melanoma, in the test on UO-31 renal and with UACC-62 melanoma was above 100 µM in each case. Moreover, the TGI in the test with HCC-2998 colon and with HS 578T breast was above 100 µM throughout.
Take `O=C(c1cccnc1)N1N=C(c2ccc(Cl)cc2)CC1(O)c1cc(F)c(Cl)cc1Cl` (configuration not stated): the TGI was 91.3 µM in the test with HOP-62 NSCLC; 91.7 µM with SK-MEL-28 melanoma; above 100 µM in the test on KM12 colon; 20.7 µM in the test with T-47D breast; above 100 µM with NCI-H460 lung; above 100 µM in the test with TK-10 renal. In addition, the TGI is 63.7 µM in the test with UACC-257 melanoma; above 100 µM with MALME-3M melanoma; above 100 µM in the test with CCRF-CEM leukemia; 24.2 µM with SK-MEL-5 melanoma; 91.9 µM in the test with M14 melanoma; above 100 µM with UO-31 renal. The compound further displayed a TGI in the test on HS 578T breast above 100 µM.
As to `NC1=NNC2(C(N)=N1)c1ccccc1-c1ccccc12`, the TGI in the test on HOP-62 NSCLC, with SK-MEL-28 melanoma, in the test with KM12 colon, in the test on T-47D breast, in the test with NCI-H460 lung and in the test on TK-10 renal was above 10 µM each time. Besides, the TGI in the test on UACC-257 melanoma, in the test with MALME-3M melanoma, in the test with MCF7 breast, in the test with SK-MEL-5 melanoma, with M14 melanoma and with UO-31 renal was above 10 µM in each case. Also, the TGI in the test with UACC-62 melanoma, in the test with HCC-2998 colon and in the test with HS 578T breast was above 10 µM in each case.
As for `O=[N+]([O-])c1cc(Cl)cc2cc(Cl)cnc12`, the TGI was above 100 µM in the test on HOP-62 NSCLC; above 100 µM with SK-MEL-28 melanoma; 97.2 µM in the test on T-47D breast; above 100 µM in the test with NCI-H460 lung; above 100 µM with TK-10 renal; above 100 µM with UACC-257 melanoma. Further, the TGI in the test on MALME-3M melanoma, in the test with CCRF-CEM leukemia, with SK-MEL-5 melanoma, in the test on M14 melanoma, in the test with UO-31 renal and in the test with UACC-62 melanoma was above 100 µM in each case. Further, the TGI with HCC-2998 colon and with HS 578T breast was above 100 µM each time.
For `Cc1cccc(-c2cc(=S)c3cc(N4CCCC4)ccc3[nH]2)c1`, the TGI with HOP-62 NSCLC, in the test with SK-MEL-28 melanoma, in the test with KM12 colon, in the test with T-47D breast, in the test with TK-10 renal and with UACC-257 melanoma was above 100 µM throughout. Also, the TGI in the test with MCF7 breast, with CCRF-CEM leukemia, with SK-MEL-5 melanoma, in the test on M14 melanoma, in the test with UO-31 renal and with UACC-62 melanoma was above 100 µM each time. For the same compound, the TGI in the test with HCC-2998 colon and with HS 578T breast was above 100 µM each time.
